From article PMC9293752, “Cholenic acid derivative UniPR1331 impairs tumor angiogenesis via blockade of VEGF/VEGFR2 in addition to Eph/ephrin” (Cancer Gene Therapy, 2021) come the findings set out here.

The target of the experiment is T1, VEGFR2 (Homo sapiens, UniProt P35968).
T1 construct: gene KDR; monomeric recombinant form of the extracellular portion of VEGFR2 fused to Fc
Description: SPR (BIAcore X100), steady-state Scatchard analysis; supported by VEGF/VEGFR2 ELISA displacement (IC50 […]). It is filed as binding.

T1 sequence (P35968 20-764 limits assumed): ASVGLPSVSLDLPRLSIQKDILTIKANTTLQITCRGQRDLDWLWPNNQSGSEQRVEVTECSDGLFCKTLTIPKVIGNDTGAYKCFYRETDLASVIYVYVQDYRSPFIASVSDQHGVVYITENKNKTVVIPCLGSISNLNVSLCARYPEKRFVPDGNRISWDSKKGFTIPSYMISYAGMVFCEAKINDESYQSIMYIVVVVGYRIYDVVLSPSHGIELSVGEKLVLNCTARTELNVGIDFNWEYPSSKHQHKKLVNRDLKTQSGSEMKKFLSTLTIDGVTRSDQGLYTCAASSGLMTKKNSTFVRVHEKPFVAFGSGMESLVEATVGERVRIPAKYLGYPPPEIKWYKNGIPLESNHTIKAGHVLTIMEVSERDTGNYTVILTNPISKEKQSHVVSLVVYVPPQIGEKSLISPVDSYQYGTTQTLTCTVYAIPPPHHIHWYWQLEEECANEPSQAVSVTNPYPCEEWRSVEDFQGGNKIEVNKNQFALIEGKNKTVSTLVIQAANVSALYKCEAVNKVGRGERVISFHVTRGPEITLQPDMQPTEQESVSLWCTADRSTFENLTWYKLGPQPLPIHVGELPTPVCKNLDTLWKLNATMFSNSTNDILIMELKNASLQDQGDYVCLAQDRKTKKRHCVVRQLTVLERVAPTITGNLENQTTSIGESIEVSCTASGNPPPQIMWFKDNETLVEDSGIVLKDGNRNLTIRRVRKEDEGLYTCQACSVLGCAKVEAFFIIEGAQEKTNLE

Broadly, the Kd is the concentration at which binding is half-saturated. A lower Kd goes with tighter binding. On to `C[C@H](CCC(=O)N[C@@H](Cc1c[nH]c2ccccc12)C(=O)O)[C@H]1CC[C@H]2[C@@H]3CC=C4C[C@@H](O)CC[C@]4(C)[C@H]3CC[C@]12C` [UniPR1331], for which the Kd is 62.2 ± 2.1 µM.
